# Tests used:
# Design in all cases: species or system nude athymic mice
# [1] = system: FaDu squamous pharynx carcinoma xenograft; assay: In vivo antitumoral activity, FaDu tumor xenograft
# Procedure: (§1) Exponentially growing tumor cells were injected s.c. into nude athymic mice. The number of tumor cells was previously chosen by a growth curve. […] Animals were housed under a light-dark cycle, keeping temperature and humidity constant. Parameters of the animal rooms were assessed as follows: 22±2° C. temperature, 55±10% relative humidity, about 15-20 filtered air changes/hour and 12 hour circadian cycle of artificial light (7 a.m., 7 p.m.). At request, the environmental conditions were monitored and the data are retained in Animal Housing Archives. Drinking water was supplied ad libitum. Each mouse was offered daily a complete pellet diet (GLP 4RF21, Mucedola) throughout the study. The analytical certificates of animal food and water are retained at Sigma-Tau premises. All animals were weighed before starting the experiment and were subdivided into the different dosage groups. Each cage was identified by a paper tag indicating: cage number, group, date of tumor injection, starting date of treatment, name of the test item, dose and route of administration, date of sacrifice.
# (§2) Tumor growth was followed by biweekly measurements of tumor diameters with a Vernier caliper. Tumor volume (TV, mm^3) was calculated as: [length (mm)×width (mm)^2]/2, where the width and the length are the shortest and the longest diameters of each tumor, respectively.
# (§3) LTS (long term survivors) were considered mice without tumor 90 days upon the tumor injection.
# [2] = system: A431 epidermoid skin ca. xenograft; assay: In vivo antitumoral activity, A431 tumor xenograft; settings: q4d × 4
# Procedure: as §1, §2, §3
# [3] = system: 501Mel melanoma xenograft; assay: In vivo antitumoral activity, 501Mel tumor xenograft; settings: 501Mel xenograft, q4d × 4
# Procedure: as §1, §2, §3
# [4] = system: MESO mesothelioma xenograft; assay: In vivo antitumoral activity, MESO tumor xenograft; settings: q4d × 4
# Procedure: as §1, §2, §3
# [5] = system: KB squamous oral head and neck carcinoma xenograft; assay: In vivo antitumoral activity, KB tumor xenograft; settings: q4d × 4
# Procedure: as §1, §2, §3
# [6] = system: HT1376 bladder ca. xenograft; assay: In vivo antitumoral activity, HT1376 tumor xenograft; settings: q4d × 4
# Procedure: as §1, §2, §3
# [7] = system: MiaPaCa2 pancreas ca. xenograft; assay: In vivo antitumoral activity, MiaPaCa2 tumor xenograft; settings: q4d × 4
# Procedure: as §1, §2, §3
# [8] = system: A253 epidermoid submaxillary salivary gland carcinoma xenograft; assay: In vivo antitumoral activity, A253 tumor xenograft; settings: q4d × 4
# Procedure: as §1, §2
# LTS (long term survivors) were considered mice without tumor 90 days upon the tumor injection. […]
smiles,measurement,setting,value
"CC[C@@]1(O)C(=O)OCc2c1cc1n(c2=O)Cc2c-1nc1ccccc1c2/C=N\OCCN [ST1968, 7-(2-amino)ethoxyiminomethylcamptothecin]",CR (complete response),"[1]; 15 mg/kg i.v., q4d × 4",8/8
same,LCK (log10 cell kill),"[1]; 15 mg/kg i.v., q4d × 4",>>3.9
same,LTS (long term survivors),"[1]; 15 mg/kg i.v., q4d × 4",8/8
same,TVI % (tumor volume inhibition),"[1]; 15 mg/kg i.v., q4d × 4",100%
same,CR (complete response),"[1]; 30 mg/kg i.v., q4d × 4",8/8
same,LCK (log10 cell kill),"[1]; 30 mg/kg i.v., q4d × 4",>>3.9
same,LTS (long term survivors),"[1]; 30 mg/kg i.v., q4d × 4",8/8
same,TVI % (tumor volume inhibition),"[1]; 30 mg/kg i.v., q4d × 4",100%
same,CR (complete response),"[1]; 35 mg/kg i.v., q4d × 4",7/7
same,LCK (log10 cell kill),"[1]; 35 mg/kg i.v., q4d × 4",>>3.9
same,LTS (long term survivors),"[1]; 35 mg/kg i.v., q4d × 4",7/7
same,TVI % (tumor volume inhibition),"[1]; 35 mg/kg i.v., q4d × 4",100%
same,CR (complete response),[2]; 30 mg/kg i.v.,12/12
same,LCK (log10 cell kill),[2]; 30 mg/kg i.v.,>>7.7
same,LTS (long term survivors),[2]; 30 mg/kg i.v.,12/12
same,TVI % (tumor volume inhibition),[2]; 30 mg/kg i.v.,100%
same,CR (complete response),[3]; 20 mg/kg i.v.,0/6
same,LCK (log10 cell kill),[3]; 20 mg/kg i.v.,1.0
same,LTS (long term survivors),[3]; 20 mg/kg i.v.,0/6
same,TVI % (tumor volume inhibition),[3]; 20 mg/kg i.v.,65%
same,CR (complete response),[3]; 30 mg/kg i.v.,0/10
same,LCK (log10 cell kill),[3]; 30 mg/kg i.v.,1.4
same,LTS (long term survivors),[3]; 30 mg/kg i.v.,0/10
same,TVI % (tumor volume inhibition),[3]; 30 mg/kg i.v.,68%
same,CR (complete response),[4]; 30 mg/kg i.v.,2/12
same,LCK (log10 cell kill),[4]; 30 mg/kg i.v.,1.4
same,LTS (long term survivors),[4]; 30 mg/kg i.v.,0/12
same,TVI % (tumor volume inhibition),[4]; 30 mg/kg i.v.,92%
same,CR (complete response),[5]; 17.5 mg/kg i.v.,4/8
same,LCK (log10 cell kill),[5]; 17.5 mg/kg i.v.,3.79
same,LTS (long term survivors),[5]; 17.5 mg/kg i.v.,4/8
same,TVI % (tumor volume inhibition),[5]; 17.5 mg/kg i.v.,99%
same,CR (complete response),[5]; 35 mg/kg i.v.,7/7
same,LCK (log10 cell kill),[5]; 35 mg/kg i.v.,>>4.0
same,LTS (long term survivors),[5]; 35 mg/kg i.v.,7/7
same,TVI % (tumor volume inhibition),[5]; 35 mg/kg i.v.,100%
same,CR (complete response),[6]; 30 mg/kg i.v.,1/12
same,LCK (log10 cell kill),[6]; 30 mg/kg i.v.,0.5
same,LTS (long term survivors),[6]; 30 mg/kg i.v.,0/12
same,TVI % (tumor volume inhibition),[6]; 30 mg/kg i.v.,77%
same,CR (complete response),[7]; 17.5 mg/kg i.v.,0/7
same,LCK (log10 cell kill),[7]; 17.5 mg/kg i.v.,1.23
same,LTS (long term survivors),[7]; 17.5 mg/kg i.v.,0/7
same,TVI % (tumor volume inhibition),[7]; 17.5 mg/kg i.v.,75%
same,CR (complete response),[7]; 30 mg/kg i.v.,0/8
same,LCK (log10 cell kill),[7]; 30 mg/kg i.v.,1.67
same,LTS (long term survivors),[7]; 30 mg/kg i.v.,0/8
same,TVI % (tumor volume inhibition),[7]; 30 mg/kg i.v.,89%
same,CR (complete response),[8]; 15 mg/kg i.v.,0/8
same,LCK (log10 cell kill),[8]; 15 mg/kg i.v.,0.6
same,LTS (long term survivors),[8]; 15 mg/kg i.v.,0/8
same,TVI % (tumor volume inhibition),[8]; 15 mg/kg i.v.,84%
same,CR (complete response),[8]; 30 mg/kg i.v.,0/8
same,LCK (log10 cell kill),[8]; 30 mg/kg i.v.,1.2
same,LTS (long term survivors),[8]; 30 mg/kg i.v.,1/8
same,TVI % (tumor volume inhibition),[8]; 30 mg/kg i.v.,90%
same,CR (complete response),[8]; 35 mg/kg i.v.,0/7
same,LCK (log10 cell kill),[8]; 35 mg/kg i.v.,1.5
same,LTS (long term survivors),[8]; 35 mg/kg i.v.,2/7
same,TVI % (tumor volume inhibition),[8]; 35 mg/kg i.v.,96%
N.N.[Cl][Pt][Cl] [cisplatin],CR (complete response),"[1]; 4.7 mg/kg i.v., q7d × 3",1/8
same,LCK (log10 cell kill),"[1]; 4.7 mg/kg i.v., q7d × 3",1.6
same,LTS (long term survivors),"[1]; 4.7 mg/kg i.v., q7d × 3",0/8
same,TVI % (tumor volume inhibition),"[1]; 4.7 mg/kg i.v., q7d × 3",93%
same,CR (complete response),"[1]; 7 mg/kg i.v., q7d × 3",1/8
same,LCK (log10 cell kill),"[1]; 7 mg/kg i.v., q7d × 3",3.9
same,LTS (long term survivors),"[1]; 7 mg/kg i.v., q7d × 3",3/8
same,TVI % (tumor volume inhibition),"[1]; 7 mg/kg i.v., q7d × 3",99%
"CCc1c2c(nc3ccc(OC(=O)N4CCC(N5CCCCC5)CC4)cc13)-c1cc3c(c(=O)n1C2)COC(=O)[C@]3(O)CC [irinotecan, reference compound]",CR (complete response),"[1]; 30 mg/kg i.v., q4d × 4",8/8
same,LCK (log10 cell kill),"[1]; 30 mg/kg i.v., q4d × 4",>>3.9
same,LTS (long term survivors),"[1]; 30 mg/kg i.v., q4d × 4",8/8
same,CR (complete response),"[1]; 60 mg/kg i.v., q4d × 4",8/8
same,LCK (log10 cell kill),"[1]; 60 mg/kg i.v., q4d × 4",>>3.9
same,LTS (long term survivors),"[1]; 60 mg/kg i.v., q4d × 4",8/8
same,CR (complete response),[2]; 50 mg/kg i.v.,12/12
same,LCK (log10 cell kill),[2]; 50 mg/kg i.v.,6.8
same,LTS (long term survivors),[2]; 50 mg/kg i.v.,9/12
same,CR (complete response),[3]; 50 mg/kg i.v.,0/10
same,LCK (log10 cell kill),[3]; 50 mg/kg i.v.,1.3
same,LTS (long term survivors),[3]; 50 mg/kg i.v.,0/10
same,CR (complete response),[4]; 50 mg/kg i.v.,0/12
same,LCK (log10 cell kill),[4]; 50 mg/kg i.v.,0.8
same,LTS (long term survivors),[4]; 50 mg/kg i.v.,0/12
same,CR (complete response),[5]; 30 mg/kg i.v.,0/7
same,LCK (log10 cell kill),[5]; 30 mg/kg i.v.,1.26
same,LTS (long term survivors),[5]; 30 mg/kg i.v.,0/7
same,CR (complete response),[5]; 60 mg/kg i.v.,0/8
same,LCK (log10 cell kill),[5]; 60 mg/kg i.v.,1.63
same,LTS (long term survivors),[5]; 60 mg/kg i.v.,0/8
same,CR (complete response),[6]; 50 mg/kg i.v.,0/10
same,LCK (log10 cell kill),[6]; 50 mg/kg i.v.,0.2
same,LTS (long term survivors),[6]; 50 mg/kg i.v.,0/10
same,CR (complete response),[7]; 60 mg/kg i.v.,0/7
same,LCK (log10 cell kill),[7]; 60 mg/kg i.v.,1.23
same,LTS (long term survivors),[7]; 60 mg/kg i.v.,0/7
same,CR (complete response),[8]; 30 mg/kg i.v.,0/8
same,LCK (log10 cell kill),[8]; 30 mg/kg i.v.,0.1
same,LTS (long term survivors),[8]; 30 mg/kg i.v.,0/8
same,CR (complete response),[8]; 60 mg/kg i.v.,0/8
same,LCK (log10 cell kill),[8]; 60 mg/kg i.v.,0.5
same,LTS (long term survivors),[8]; 60 mg/kg i.v.,0/8

# From patent US8853233B2, “Broad-spectrum anti-cancer treatment based on iminocamptothecin derivatives” (Sigma-Tau Industrie Farmaceutiche Riunite S.p.A., priority 2007, dated 2014)
